Values of other authors, collected in patent US20060100182A1, “Pharmaceutical compositions for the treatment of urinary incontinence” (priority 2002, published 2006).
Counter-ions that a name gives are not always drawn.

Structure (SMILES): CCN(CC)CC#CCOC(=O)C(O)(c1ccccc1)C1CCCCC1 (stereo not drawn) [oxybutynin, 4-(diethylamino)-2-butynyl acetate ∝-cyclohexyl ∝-hydroxyphenyl hydrochloride]
- systemic bioavailability (oral route, hepatic first-pass effect): ~6%
- maximum plasmatic levels (oral route, recommended doses, 5 mg tablets): 8 to 18 ng/mL
- elimination half-life (statutory information DITROPAN, Vidal 2001): 2 h
